{"source": "patent US4125606A", "about": "“Octapeptide useful for the treatment of diabetes” (Choay S.A., priority 1974, dated 1978)", "key": {"[1]": {"target": "glyceraldehyde 3-phosphate dehydrogenase (Homo sapiens, UniProt P04406)", "sequence (P04406 whole entry, species assumed)": "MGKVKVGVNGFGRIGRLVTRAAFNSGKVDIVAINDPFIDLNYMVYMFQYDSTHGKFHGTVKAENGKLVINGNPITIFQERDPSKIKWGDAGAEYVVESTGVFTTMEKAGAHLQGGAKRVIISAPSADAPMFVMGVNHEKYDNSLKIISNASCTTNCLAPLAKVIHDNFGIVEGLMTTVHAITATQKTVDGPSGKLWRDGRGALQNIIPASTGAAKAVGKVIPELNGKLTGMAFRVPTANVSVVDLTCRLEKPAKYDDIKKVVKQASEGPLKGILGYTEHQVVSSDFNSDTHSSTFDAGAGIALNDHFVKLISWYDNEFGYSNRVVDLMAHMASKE", "experiment": "Enzymatic effect in vitro: lifting of somantine inhibition of glyceraldehyde 3-phosphate dehydrogenase", "type": "biochemical", "method": "In this test, the compound (I) was tested for its ability to raise the inhibition of a somantine extracted from a plasma with respect to the action of glyceraldehyde 3-phosphate dehydrogenase.\nTo this end, the activity of the enzyme in the presence successively of somantine alone, of the compound (I) alone, and finally in the presence of somantine and of the compound (I), were measured.\nIn this test, the glyceraldehyde 3-phosphate dehydrogenase was used at a concentration of 0.5 μg/ml, the somantine at 25 μg/ml, and the compound (I) at 50 μg/ml.\nThe method used for the measurements is that of Pihl and Lang (J. Biol. Chem 237: 1356-1362, 1962)."}, "adult rabbits": {"system": "adult rabbits", "experiment": "Effect on the in vivo effect of insulin: intravenous glucose test in the rabbit", "method": "The assays were carried out in the course of the tests carried out to determine the resistance to glucose injected by the intravenous route in the rabbit.\nThese tests were done on adult rabbits, which had been subjected to prior fasting for 24 hours. Blood was drawn off and the glucose level in the blood samples was determined. The measurement was carried out by the ferricyanide method as adapted for the \"Technicon Autoanalyser\" (J. Biol. Chem. 120: 51-55, 1937). In this way the glucose level on fasting, then its variation after the intravenous injection of glucose, at the dose of 1 gram per kilo, was determined. These measurements were then renewed in rabbits which had received, 5 minutes after the glucose, an intravenous injection of the compound (1) (5 μg/kg)."}, "mice [2]": {"system": "mice", "experiment": "Influence on glycemia in mice after glucose injection", "type": "in vivo", "source_text": "Influence of octapeptide (I) on glycemia has been determined in mice under conditions similar to those described for rabbits. The experiment included two series of tests aimed at studying the immediate effects and the prolonged effects.\nIn the first series of tests, a simultaneous injection of glucose and of the octapeptide (I) was made, and the lowering of glycemia with respect to that of control animals which had not received glucose, was followed as a function of time.\nThe injections were respectively of 0.25 g of glucose and 2 mg per kilo of body weight of the animal, namely about 40 μ/g, of octapeptide (I) or […].\nIn the second series of tests, the mice received the product before the injection of glucose. Three injections each of 40 μg of octapeptide (I) were administered respectively 72, 48 and 24 hours before the injection of glucose."}, "diabetic rats": {"system": "diabetic rats", "experiment": "Effect on glycemia in diabetic animals", "type": "in vivo", "conditions": "diabetic rats fasted 4 hours; glucose 0.5 g/kg; octapeptide 2 μg/g", "method": "In this test, the drop in glycemia was compared after the simultaneous injection of glucose, on the one hand, and, on the other hand, either of the octapeptide at the dosage of […], or of insulin, or again of both at once. In that latter case the dosage of octapeptide used was also 2 μg/g.\nThe tests were carried out on diabetic rats, kept fasting for 4 hours before the injection of glucose (at the dose of 0.5 g/kg of animal)."}, "[3]": {"system": "insulin receptors of lipid cells", "experiment": "Insulin binding to trypsinated lipid cells", "type": "cell-based", "conditions": "octapeptide introduced into the medium; trypsinated cells alone no longer fix insulin", "source_text": "In an attempt to elucidate the mechanism of action of the octapeptide (I) with respect to insulin, the phenomena were first studied at the level of the insulin receptors of lipid cells trypsinated to destroy said receptors."}, "hepatic cells": {"system": "hepatic cells", "experiment": "Insulin binding to hepatic cells", "type": "cell-based", "method": "In the same way, the ratio of insulin binding to hepatic cells placed in a suitable reaction medium was measured. When the medium contains octapeptide (I), the ratio of insulin binding to the hepatic cells increases. The result is similar if the said cells are incubated with octapeptide (I)."}, "[4]": {"system": "glucose receptors of the Langerhans islets", "experiment": "Insulin liberated by Langerhans islets removed from treated animals", "type": "in vivo", "conditions": "islets removed one day or four days after injection; medium supplemented with glucose", "method": "Finally, the effect of the octapeptide (I) on the glucose receptors of the Langerhans islets was determined. For this purpose, the octapeptide (I) was injected into animals.\nOne day or four days later, the animals were killed and the islets of Langerhans removed. The latter were placed in a reaction medium supplemented with glucose, and the amount of insulin liberated was determined and compared to controls."}, "mice [5]": {"system": "mice", "experiment": "Tolerance: acute and subacute toxicity study in mice", "type": "in vivo", "conditions": "1 month, daily dosages 5 to 10 times the active dosage", "method": "An acute and subacute toxicity study was carried out on mice for 1 month, each mouse receiving daily dosages corresponding to 5 to 10 times the active dosage."}, "[6]": {"system": "isolated hemidiaphragm of the rat", "experiment": "Consumption of glucose in vitro, isolated rat hemidiaphragm", "type": "cell-based, Wistar albino male rats", "conditions": "related to the weight of tissue in grams and per hour; glucose 2 mg/ml, insulin 500 μU/ml, compound (I) 250 μg/ml", "method": "To follow this consumption, the isolated hemidiaphragm of the rat in vitro was used. The method employed is that described by Park et al. (Effect of insulin on free glucose content of rat diaphragm in vitro - Amer. J. Physiol. 182: 12-16, 1955). The hemidiaphragm derived from Wistar albino male rats each weighing 200 to 250 g was used. The rats were fed freely for 7 days and then starved for 24 hours. The solutions studied contained 2 mg/ml of glucose, 500 μU/ml of insulin. The compound (I) was introduced at 250 μg/ml. The consumption of glucose related to the weight of tissue in grams and per hour was under these conditions: […]"}}, "note": "Where no end group is shown, it is not given here.", "data": [{"substance": "LSRLFDNA [compound (I), leucyl - seryl - arginyl - leucyl - phenylalanyl - aspartyl - asparaginyl - alanine]", "values": [{"measurement": "effect on the inhibiting effect of somantine (in words)", "setting": "[1]; compound (I) 50 μg/ml together with somantine 25 μg/ml", "value": "inhibiting effect of somantine to be partly suppressed"}, {"measurement": "effect on the activity of the enzyme (in words)", "setting": "[1]; compound (I) alone, 50 μg/ml", "value": "practically without effect on the activity of the enzyme"}, {"measurement": "decrease in the blood glucose level after intravenous glucose (in words)", "setting": "adult rabbits; rabbits fasted 24 hours, glucose 1 g/kg i.v., compound 5 μg/kg i.v. 5 minutes after the glucose", "value": "decrease in the glucose level is greater"}, {"measurement": "glucose level reached, compared with fasting level (in words)", "setting": "adult rabbits; rabbits, glucose 1 g/kg i.v., compound 5 μg/kg i.v.", "value": "glucose level even reached values less than those which were measured in the fasting rabbits"}, {"measurement": "persistence of the effect on carbohydrate metabolism (in words)", "setting": "adult rabbits; similar tests at intervals of several days after the injection", "value": "persists several days"}, {"measurement": "drop in glycemia, immediate effect (in words)", "setting": "mice [2]; simultaneous injection of glucose 0.25 g and octapeptide 2 mg per kilo", "value": "drop in glycemia distinctly more accentuated"}, {"measurement": "drop in glycemia, prolonged effect (in words)", "setting": "mice [2]; three injections of 40 μg at 72, 48 and 24 hours before glucose, versus control mice receiving only glucose", "value": "more rapid drop in glycemia"}, {"measurement": "course of glycemia after glucose injection (in words)", "setting": "diabetic rats", "value": "glycemia is practically unmodified"}, {"measurement": "insulin binding to trypsinated lipid cells (in words)", "setting": "[3]", "value": "the binding reappears"}, {"measurement": "ratio of insulin binding to hepatic cells (in words)", "setting": "hepatic cells; cells incubated with octapeptide (I)", "value": "similar"}, {"measurement": "ratio of insulin binding to hepatic cells (in words)", "setting": "hepatic cells; medium contains octapeptide (I)", "value": "increases"}, {"measurement": "level of liberated insulin compared to controls (in words)", "setting": "[4]", "value": "very substantial increase"}, {"measurement": "toxic effect, macro and microscopic studies (in words)", "setting": "mice [5]", "value": "not shown any toxic effect"}]}, {"substance": "insulin: insulin; in the hemidiaphragm test 500 μU/ml in a 2 mg/ml glucose solution [reference compound]", "values": [{"measurement": "Consumption of glucose", "setting": "[6]", "value": "4.10 ± 0.15", "unit": "mg"}, {"measurement": "course of glycemia after glucose injection (in words)", "setting": "diabetic rats", "value": "decreases rapidly, stabilises, then rises again"}]}]}
